The data set can be described thus: Test of maximum solubility of Compound A, HCl in a HP-β-cyclodextrin as a function of the pH. To be noted: Cavitron W7HP5 solution, aqueous with cosolvent or surfactant or cyclodextrin, thermodynamic from solid, Cavitron W7HP5 20% by weight, read-out: Solubility after 24 h. The class given is physicochemical. The method, then: The solubility of Compound A, HCl was studied in the presence of a HP-β-cyclodextrin as a function of the pH by means of various buffers (acetate pH=4 and phosphate pH=7.4).
0.75 g of sodium acetate trihydrate (NaC2H3O2, 3H2O) is introduced into a 250 mL graduated flask. 3.5 mL of 2 N acetic acid solution (produced from glacial acetic acid) are added. The volume is then made up to 250 mL by means of 0.9% NaCl solution, and the whole is then stirred. The pH is then adjusted to 4 by means of 1 N HCl solution.
2.075 g of monobasic potassium phosphate (KH2PO4) and 0.238 g of dibasic sodium phosphate (Na2HPO4) are dissolved in 100 mL of water. The whole is stirred until solubilisation is complete. The volume is then made up to 250 mL by means of 0.9% NaCl solution. The pH is adjusted to the desired value (7.4) by means of 1N sodium hydroxide solution.
2 g of the cyclodextrin studied (Cavitron™ W7HP5) are weighed into a 10 mL graduated flask. The volume is then made up to 10 mL by means of a water/0.9% NaCl mixture (80/20) or an acetate or phosphate buffer solution, depending on the desired pH.
Approximately 10 mg of Compound A, HCl are weighed. 1 mL of the medium containing the carrier to be tested, that is to say Cavitron™ W7HP5 without pH adjustment, Cavitron™ W7HP5 adjusted to pH=4 or Cavitron™ W7HP5 adjusted to pH=7.4, is then added. The whole is then placed under magnetic stirring. Then, 5 mg of Compound A, HCl are added. The operation is repeated if the compound solubilises. The mixture is stirred for 24 hours. The suspension so obtained is passed through a 0.45 μm filter before being analysed by HPLC chromatography.

Where a name gives a salt, the structure may show the parent alone. Read-outs that look alike come from different tables or passages of the source.

The values below come from patent US20210353633A1, “CYCLODEXTRIN-BASED FORMULATION OF A BCL-2 INHIBITOR” (LES LABORATOIRES SERVIER, priority 2018, published 2021).

In general, solubility refers to how much of the substance goes into solution per volume. As to `Cc1c(N(C(=O)c2cc(-c3cc(Cl)ccc3C(=O)N3Cc4ccccc4C[C@H]3CN3CCOCC3)n(C)c2C)c2ccc(O)cc2)cc(C#N)n1C` [Compound A, HCl, 5-(5-chloro-2-{[(3S)-3-(morpholin-4-ylmethyl)-3,4-dihydroisoquinolin-2(1H)-yl]carbonyl}phenyl)-N-(5-cyano-1,2-dimethyl-1H-pyrrol-3-yl)-N-(4-hydroxyphenyl)-1,2-dimethyl-1H-pyrrole-3-carboxamide], the solubility at 24 h is, setting by setting: (pH = 3.8, i.e. pH not adjusted) 24.6 mg/mL; (pH = 4 (acetate buffer)) 13 mg/mL; (pH = 7.4 (phosphate buffer)) 1.69 mg/mL.
